Among the data in ChEMBL document CHEMBL1138369, “Novel nucleotide triphosphates as potent P2Y2 agonists” (Bioorg Med Chem Lett, 2007) are EC50 values, retold here.

In general, EC50 refers to the concentration that produces a half-maximal response. Low values mean greater potency, high ones weaker potency.

The structures appear in SMILES notation. A value given as a limit tells only on which side of the number the result lay.

Type in all cases: functional
One assay concerns the target P2Y purinoceptor 2 (Homo sapiens, UniProt P41231). Put plainly: Agonist activity at human P2Y2 receptor expressed in human 1321N1 by FLIPR assay.
The target in the next assay is P2Y purinoceptor 1 (Homo sapiens, UniProt P47900). In words: Agonist activity at human cloned P2Y1 receptor expressed in human 1321N1 by FLIPR assay.
For another assay, the target named is P2Y purinoceptor 4 (Homo sapiens, UniProt P51582). Put plainly: Agonist activity at human cloned P2Y4 receptor expressed in human 1321N1 by FLIPR assay.
The target in a further assay is P2Y purinoceptor 6 (Homo sapiens, UniProt Q15077). Put plainly: Agonist activity at human cloned P2Y6 receptor expressed in human 1321N1 by FLIPR assay.
Sequence of P2Y purinoceptor 6 (Q15077 whole entry): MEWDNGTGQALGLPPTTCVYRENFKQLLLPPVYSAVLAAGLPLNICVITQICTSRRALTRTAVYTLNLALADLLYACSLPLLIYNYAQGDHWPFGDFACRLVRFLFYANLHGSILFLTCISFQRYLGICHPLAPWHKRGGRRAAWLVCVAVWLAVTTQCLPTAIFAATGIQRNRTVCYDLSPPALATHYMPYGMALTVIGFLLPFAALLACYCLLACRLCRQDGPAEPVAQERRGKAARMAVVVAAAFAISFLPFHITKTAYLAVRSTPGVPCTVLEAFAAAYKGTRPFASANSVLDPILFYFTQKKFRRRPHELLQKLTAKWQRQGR

Sequence of P2Y purinoceptor 4 (P51582 whole entry): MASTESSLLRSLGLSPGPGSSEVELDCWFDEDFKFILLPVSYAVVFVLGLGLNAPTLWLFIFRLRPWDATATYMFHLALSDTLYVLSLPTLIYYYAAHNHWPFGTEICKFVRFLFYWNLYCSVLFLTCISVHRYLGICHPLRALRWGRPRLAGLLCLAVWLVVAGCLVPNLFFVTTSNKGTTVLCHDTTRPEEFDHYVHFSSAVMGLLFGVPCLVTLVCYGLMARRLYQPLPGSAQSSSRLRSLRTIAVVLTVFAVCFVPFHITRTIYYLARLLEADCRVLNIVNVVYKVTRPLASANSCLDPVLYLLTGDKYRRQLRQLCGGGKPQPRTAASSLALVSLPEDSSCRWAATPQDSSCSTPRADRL
Sequence of P2Y purinoceptor 1 (P47900 whole entry): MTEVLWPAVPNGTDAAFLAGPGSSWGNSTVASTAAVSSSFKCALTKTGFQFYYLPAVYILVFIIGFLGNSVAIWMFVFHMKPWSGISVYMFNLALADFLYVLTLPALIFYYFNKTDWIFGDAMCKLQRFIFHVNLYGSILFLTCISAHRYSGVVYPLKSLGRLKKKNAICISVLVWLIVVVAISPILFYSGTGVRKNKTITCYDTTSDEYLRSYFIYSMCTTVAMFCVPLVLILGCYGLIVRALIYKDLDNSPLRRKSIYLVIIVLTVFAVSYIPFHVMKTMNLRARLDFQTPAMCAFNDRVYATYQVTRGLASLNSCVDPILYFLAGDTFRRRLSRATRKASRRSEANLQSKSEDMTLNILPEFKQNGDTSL
Sequence of P2Y purinoceptor 2 (P41231 whole entry): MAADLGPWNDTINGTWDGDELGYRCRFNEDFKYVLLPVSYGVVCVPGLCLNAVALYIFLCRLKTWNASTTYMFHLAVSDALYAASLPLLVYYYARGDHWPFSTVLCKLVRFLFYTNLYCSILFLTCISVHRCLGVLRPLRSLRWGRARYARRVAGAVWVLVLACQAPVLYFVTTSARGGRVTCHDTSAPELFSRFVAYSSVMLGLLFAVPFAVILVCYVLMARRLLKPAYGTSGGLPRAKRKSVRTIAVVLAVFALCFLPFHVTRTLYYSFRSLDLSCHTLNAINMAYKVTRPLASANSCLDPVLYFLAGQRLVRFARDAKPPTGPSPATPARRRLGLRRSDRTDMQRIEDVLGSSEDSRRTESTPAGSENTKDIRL

In the case of `O=c1c2ccoc2ccn1[C@@H]1O[C@H](COP(=O)(O)OP(=O)(O)OP(=O)(O)O)[C@@H](O)[C@H]1O`, on P2Y purinoceptor 2, the EC50 was 68 nM.

The compound `O=c1c2cc(Cl)c(Cl)cc2ccn1[C@@H]1O[C@H](COP(=O)(O)OP(=O)(O)OP(=O)(O)O)[C@@H](O)[C@H]1O` registered an EC50 on P2Y purinoceptor 2 of 13 nM.

`COc1ccc2ccn([C@@H]3O[C@H](COP(=O)(O)OP(=O)(O)OP(=O)(O)O)[C@@H](O)[C@H]3O)c(=O)c2c1`: at P2Y purinoceptor 2, the 50% effective concentration (EC50) was 26 nM.

At P2Y purinoceptor 2, `Cc1cccc2c(=O)n([C@@H]3O[C@H](COP(=O)(O)OP(=O)(O)OP(=O)(O)O)[C@@H](O)[C@H]3O)ccc12` showed an EC50 of 557 nM.

With `CSc1ccc2ccn([C@@H]3O[C@H](COP(=O)(O)OP(=O)(O)OP(=O)(O)O)[C@@H](O)[C@H]3O)c(=O)c2c1`, at P2Y purinoceptor 2, it took 140 nM to reach a half-maximal effect (EC50).

Compound `CS(=O)(=O)c1ccc2ccn([C@@H]3O[C@H](COP(=O)(O)OP(=O)(O)OP(=O)(O)O)[C@@H](O)[C@H]3O)c(=O)c2c1` gave an EC50 on P2Y purinoceptor 2 of 650 nM.

Take `O=c1c2ccccc2ccn1[C@@H]1O[C@H](COP(=O)(O)OP(=O)(O)OP(=O)(O)O)[C@@H](O)[C@H]1O`: the EC50 on P2Y purinoceptor 2 was 31 nM; at P2Y purinoceptor 1, > 20000 nM; at P2Y purinoceptor 4, 7040 nM; on P2Y purinoceptor 6 it was > 20000 nM.

At P2Y purinoceptor 2, `Cc1cccc2ccn([C@@H]3O[C@H](COP(=O)(O)OP(=O)(O)OP(=O)(O)O)[C@@H](O)[C@H]3O)c(=O)c12` gave an EC50 of 85 nM.

For the compound `O=c1ccn([C@@H]2O[C@H](COP(=O)(O)OP(=O)(O)OP(=O)(O)OP(=O)(O)OC[C@H]3O[C@@H](n4ccc(=O)[nH]c4=O)[C@H](O)[C@@H]3O)[C@@H](O)[C@H]2O)c(=O)[nH]1` [DIQUAFOSOL], the EC50 on P2Y purinoceptor 1 was > 20000 nM.

With `O=c1ccn([C@@H]2O[C@H](COP(=O)(O)OP(=O)(O)OP(=O)(O)O)[C@@H](O)[C@H]2O)c(=O)[nH]1` [URIDINE TRIPHOSPHATE], the EC50 on P2Y purinoceptor 2 is 7 nM; at P2Y purinoceptor 1, > 2000 nM; at P2Y purinoceptor 4, 39 nM; on P2Y purinoceptor 6, 424 nM.

On to `Cc1ccc2c(=O)n([C@@H]3O[C@H](COP(=O)(O)OP(=O)(O)OP(=O)(O)O)[C@@H](O)[C@H]3O)ccc2c1`, for which the midpoint of the response at P2Y purinoceptor 2, the EC50, lay at 35 nM.

For `O=c1c2cc(Cl)ccc2ccn1[C@@H]1O[C@H](COP(=O)(O)OP(=O)(O)OP(=O)(O)O)[C@@H](O)[C@H]1O`, the EC50 on P2Y purinoceptor 2 is 10 nM; on P2Y purinoceptor 1 it was > 20000 nM; on P2Y purinoceptor 4 it was 20000 nM; on P2Y purinoceptor 6, > 20000 nM.

Turning to `O=c1c2cc(F)c(F)cc2ccn1[C@@H]1O[C@H](COP(=O)(O)OP(=O)(O)OP(=O)(O)O)[C@@H](O)[C@H]1O`, the EC50 at P2Y purinoceptor 2 was 16 nM; at P2Y purinoceptor 1 it was > 20000 nM; on P2Y purinoceptor 4 it was > 20000 nM; on P2Y purinoceptor 6, > 20000 nM.

Take `COc1cc2ccn([C@@H]3O[C@H](COP(=O)(O)OP(=O)(O)OP(=O)(O)O)[C@@H](O)[C@H]3O)c(=O)c2cc1F`: the EC50 at P2Y purinoceptor 2 turned out to be 6 nM.

In turn, `Cc1cn([C@@H]2O[C@H](COP(=O)(O)OP(=O)(O)OP(=O)(O)O)[C@@H](O)[C@H]2O)c(=O)c2ccccc12` gave an EC50 on P2Y purinoceptor 2 of 17500 nM.

The compound `O=c1c2ccsc2ccn1[C@@H]1O[C@H](COP(=O)(O)OP(=O)(O)OP(=O)(O)O)[C@@H](O)[C@H]1O` had an EC50 on P2Y purinoceptor 2 of 30 nM.

`N#Cc1ccc2c(=O)n([C@@H]3O[C@H](COP(=O)(O)OP(=O)(O)OP(=O)(O)O)[C@@H](O)[C@H]3O)ccc2c1` came in with an EC50 on P2Y purinoceptor 2 of 88 nM.

With `O=c1c2cc(F)ccc2ccn1[C@@H]1O[C@H](COP(=O)(O)OP(=O)(O)OP(=O)(O)O)[C@@H](O)[C@H]1O`, the EC50 was 5 nM on P2Y purinoceptor 2, > 20000 nM on P2Y purinoceptor 1, 3580 nM at P2Y purinoceptor 4 and > 20000 nM at P2Y purinoceptor 6.

As to `O=c1c2occc2ccn1[C@@H]1O[C@H](COP(=O)(O)OP(=O)(O)OP(=O)(O)O)[C@@H](O)[C@H]1O`, the response at P2Y purinoceptor 2 was half-maximal at 221 nM (EC50).

For `N#Cc1ccc2ccn([C@@H]3O[C@H](COP(=O)(O)OP(=O)(O)OP(=O)(O)O)[C@@H](O)[C@H]3O)c(=O)c2c1`, the EC50 on P2Y purinoceptor 2 was determined as 12 nM.

As for `CN(C)c1cc2ccn([C@@H]3O[C@H](COP(=O)(O)OP(=O)(O)OP(=O)(O)O)[C@@H](O)[C@H]3O)c(=O)c2cc1F`, the EC50 at P2Y purinoceptor 2 came out at 4 nM.

As for `O=c1c2cccnc2ccn1[C@@H]1O[C@H](COP(=O)(O)OP(=O)(O)OP(=O)(O)O)[C@@H](O)[C@H]1O`, the EC50 on P2Y purinoceptor 2 came out at 35 nM.

`O=c1c2c(ccn1[C@@H]1O[C@H](COP(=O)(O)OP(=O)(O)OP(=O)(O)O)[C@@H](O)[C@H]1O)CCCC2`: the concentration for a half-maximal effect (EC50) at P2Y purinoceptor 2 came out at 55 nM.

Turning to `O=c1c2ccc(Cl)cc2ccn1[C@@H]1O[C@H](COP(=O)(O)OP(=O)(O)OP(=O)(O)O)[C@@H](O)[C@H]1O`, the EC50 on P2Y purinoceptor 2 was 541 nM.

`O=c1c2ccc(F)cc2ccn1[C@@H]1O[C@H](COP(=O)(O)OP(=O)(O)OP(=O)(O)O)[C@@H](O)[C@H]1O` displayed an EC50 at P2Y purinoceptor 2 of 77 nM.

`Cc1ccc2ccn([C@@H]3O[C@H](COP(=O)(O)OP(=O)(O)OP(=O)(O)O)[C@@H](O)[C@H]3O)c(=O)c2c1` gave an EC50 at P2Y purinoceptor 2 of 148 nM.

`CSc1cc2ccn([C@@H]3O[C@H](COP(=O)(O)OP(=O)(O)OP(=O)(O)O)[C@@H](O)[C@H]3O)c(=O)c2cc1F`: the EC50 on P2Y purinoceptor 2 was 3 nM; at P2Y purinoceptor 1, > 20000 nM; at P2Y purinoceptor 4, > 20000 nM; on P2Y purinoceptor 6 it was > 20000 nM.
